Where “and” joins values, the source holds several entries; their conditions need not be identical. Equal entries are not always repeated. Inconclusive results and toxic doses are left out.
Tested on: BDF1 mice, P388/ADR leukemia ip, median survival T/C
Experiment: NCI In Vivo Anticancer Drug Screen. Data for tumor model P388 Leukemia resistant to Adriamycin; NSC 123127, Developed at Scr 06 and 41 (intraperitoneal) in B6D2F1 (BDF1) mice
Settings: endpoint: median survival time, higher = longer survival
Protocol: The antitumor activity of compounds was measured in mice bearing transplantable tumors. Survival or tumor size were measured and the results are expressed as the measurement made in the treated group (T) divided by the measurement made in the vehicle treated control group (C). The tumor model used in this assay is P388 Leukemia resistant to Adriamycin; NSC 123127, Developed at Scr 06 and 41 (intraperitoneal) in B6D2F1 (BDF1) mice

[1] = dose: 6.48 mg/kg/injection, schedule: Q04DX003 (ip), vehicle: saline
[2] = dose: 10.8 mg/kg/injection, schedule: Q04DX003 (ip), vehicle: saline
[3] = dose: 18.0 mg/kg/injection, schedule: Q04DX003 (ip), vehicle: saline

In the case of `CN(Cc1cnc2nc(N)nc(N)c2n1)c1ccc(C(=O)N[C@@H](CCC(=O)O)C(=O)O)cc1`, the T/C (dose: 10.8 mg/kg/injection, schedule: Q04DX003 (ip), vehicle: sodium bicarbonate) was 158 % of control, the T/C (dose: 18.0 mg/kg/injection, schedule: Q04DX003 (ip), vehicle: sodium bicarbonate) was 188 % of control and the T/C (dose: 30.0 mg/kg/injection, schedule: Q04DX003 (ip), vehicle: sodium bicarbonate) was 166 % of control. The T/C (dose: 50.0 mg/kg/injection, schedule: Q04DX003 (ip), vehicle: sodium bicarbonate) was 111 % of control.

With `COc1cc([C@@H]2c3cc4c(cc3[C@@H](OC3OC5CO[C@@H](c6cccs6)OC5C(O)C3O)[C@H]3COC(=O)[C@H]23)OCO4)cc(OC)c1O` (some centres not stated) the T/C (dose: 13.33 mg/kg/injection, schedule: Q04DX003 (ip), vehicle: saline) was 123 % of control.

`O=CC(NC(=O)N(CCCl)N=O)C(O)C(O)C(O)CO` (configuration not stated) was tested, and the T/C [1] was 240 % of control, the T/C [2] was 553 % of control and the T/C [3] was 120 % of control.

`Cc1c2ccncc2c(C)c2c1[nH]c1ccccc12` was tested, and the T/C (dose: 13.0 mg/kg/injection, schedule: Q04DX003 (ip), vehicle: water) was 112 % of control, the T/C (dose: 21.6 mg/kg/injection, schedule: Q04DX003 (ip), vehicle: water) was 104 % of control and 109 % of control and the T/C (dose: 36.0 mg/kg/injection, schedule: Q04DX003 (ip), vehicle: water) was 110 % of control and 117 % of control.

With `Nc1ncn(C2OC(CO)C(O)C2O)c(=O)n1` (configuration not stated) the T/C [1] was 210 % of control, the T/C [2] was 191 % of control and the T/C [3] was 184 % of control. For the same compound, the T/C (dose: 30.0 mg/kg/injection, schedule: Q04DX003 (ip), vehicle: saline) was 87 % of control.

`CCN(CC)CCNc1ccc(CO)c2sc3ccccc3c(=O)c12` was tested, and the T/C (dose: 17.3 mg/kg/injection, schedule: Q01DX009 (ip), vehicle: water) was 93 % of control, the T/C (dose: 25.2 mg/kg/injection, schedule: Q01DX009 (ip), vehicle: water) was 108 % of control and the T/C (dose: 28.8 mg/kg/injection, schedule: Q01DX009 (ip), vehicle: water) was 100 % of control. The T/C (dose: 42.0 mg/kg/injection, schedule: Q01DX009 (ip), vehicle: water) was 117 % of control, the T/C (dose: 48.0 mg/kg/injection, schedule: Q01DX009 (ip), vehicle: water) was 104 % of control and the T/C (dose: 70.0 mg/kg/injection, schedule: Q01DX009 (ip), vehicle: water) was 104 % of control. For the same compound, the T/C (dose: 117.0 mg/kg/injection, schedule: Q01DX009 (ip), vehicle: water) was 88 % of control.

For `COc1ccc(CC2C(=O)NC(C)C(=O)N(C)C3Cc4ccc(cc4)Oc4cc(ccc4O)CC(C(=O)NC(C)C(=O)NC(C)C(=O)N2C)N(C)C3=O)cc1` (configuration not stated), the T/C (dose: 4.32 mg/kg/injection, schedule: Q04DX003 (ip), vehicle: other) was 109 % of control, the T/C (dose: 7.2 mg/kg/injection, schedule: Q04DX003 (ip), vehicle: other) was 94 % of control and the T/C (dose: 12.0 mg/kg/injection, schedule: Q04DX003 (ip), vehicle: other) was 88 % of control.

For `O=C1c2ccccc2C(=O)c2c(NCCNCCO)ccc(NCCNCCO)c21`, the T/C (dose: 13.0 mg/kg/injection, schedule: Q04DX003 (ip), vehicle: saline + alcohol) was 105 % of control, the T/C (dose: 21.6 mg/kg/injection, schedule: Q04DX003 (ip), vehicle: saline + alcohol) was 104 % of control and the T/C (dose: 36.0 mg/kg/injection, schedule: Q04DX003 (ip), vehicle: saline + alcohol) was 98 % of control.

With `CC[C@@]1(O)C[C@H](OC2CC(N(C)C)C(OC3CC(O)C(OC4CCC(=O)C(C)O4)C(C)O3)C(C)O2)c2c(cc3c(c2O)C(=O)c2c(O)ccc(O)c2C3=O)[C@H]1C(=O)OC` (some centres not stated) the T/C (dose: 0.65 mg/kg/injection, schedule: Q01DX009 (ip), vehicle: water) was 110 % of control, the T/C (dose: 1.08 mg/kg/injection, schedule: Q01DX009 (ip), vehicle: water) was 120 % of control and the T/C (dose: 1.73 mg/kg/injection, schedule: Q04DX003 (ip), vehicle: water) was 115 % of control and 124 % of control. The T/C (dose: 2.5 mg/kg/injection, schedule: Q04DX003 (ip), vehicle: water) was 116 % of control, the T/C (dose: 2.88 mg/kg/injection, schedule: Q04DX003 (ip), vehicle: water) was 119 % of control and the T/C (dose: 3.0 mg/kg/injection, schedule: Q01DX009 (ip), vehicle: water) was 90 % of control. The T/C (dose: 4.8 mg/kg/injection, schedule: Q04DX003 (ip), vehicle: other) was 119 % of control, the T/C (dose: 4.8 mg/kg/injection, schedule: Q04DX003 (ip), vehicle: water) was 150 % of control and the T/C (dose: 5.0 mg/kg/injection, schedule: Q04DX003 (ip), vehicle: water) was 110 % of control.

In the case of `CC[C@]1(O)C[C@H](OC2CC(N(C)C)C(OC3CC(O)C(O)C(C)O3)C(C)O2)c2c(cc3c(c2O)C(=O)c2c(O)ccc(O)c2C3=O)[C@H]1C(=O)OC` (some centres not stated), the T/C (dose: 3.46 mg/kg/injection, schedule: Q04DX003 (ip), vehicle: other) was 106 % of control, the T/C (dose: 5.76 mg/kg/injection, schedule: Q04DX003 (ip), vehicle: other) was 102 % of control and the T/C (dose: 9.6 mg/kg/injection, schedule: Q04DX003 (ip), vehicle: other) was 93 % of control.

In the case of `CC1OC(OC2CC(O)(C(=O)CO)Cc3c(O)c4c(c(O)c32)C(=O)c2ccccc2C4=O)CC(N)C1O` (configuration not stated), the T/C (dose: 216.0 micrograms/kg/injection, schedule: Q04DX003 (ip), vehicle: water) was 100 % of control, the T/C (dose: 360.0 micrograms/kg/injection, schedule: Q04DX003 (ip), vehicle: water) was 102 % of control and the T/C (dose: 600.0 micrograms/kg/injection, schedule: Q04DX003 (ip), vehicle: water) was 101 % of control. For the same compound, the T/C (dose: 1000.0 micrograms/kg/injection, schedule: Q04DX003 (ip), vehicle: water) was 99 % of control.

With `COC(=O)[C@@H]1c2cc3c(c(O)c2[C@@H](OC2OC(C)C(OC)C(C)(OC)C2OC)C[C@]1(C)O)C(=O)c1c(O)cc2c(c1C3=O)O[C@H]1O[C@]2(C)[C@H](O)[C@@H](N(C)C)[C@@H]1O` (some centres not stated) the T/C (dose: 0.65 mg/kg/injection, schedule: Q04DX003 (ip), vehicle: water) was 89 % of control, the T/C (dose: 1.08 mg/kg/injection, schedule: Q04DX003 (ip), vehicle: water) was 96 % of control and the T/C (dose: 1.3 mg/kg/injection, schedule: Q04DX003 (ip), vehicle: water) was 103 % of control. For the same compound, the T/C (dose: 1.8 mg/kg/injection, schedule: Q04DX003 (ip), vehicle: water) was 96 % of control and the T/C (dose: 2.16 mg/kg/injection, schedule: Q04DX003 (ip), vehicle: water) was 91 % of control.

In the case of `COc1cc([C@@H]2c3cc4c(cc3[C@@H](OC3OC5COC(C)OC5C(O)C3O)[C@H]3COC(=O)[C@H]23)OCO4)cc(OC)c1O` (some centres not stated), the T/C (dose: 18.0 mg/kg/injection, schedule: Q04DX003 (ip), vehicle: Klucel (hydroxypropylcellulose) (HPC)) was 110 % of control, the T/C (dose: 30.0 mg/kg/injection, schedule: Q04DX003 (ip), vehicle: Klucel (hydroxypropylcellulose) (HPC)) was 119 % of control and the T/C (dose: 50.0 mg/kg/injection, schedule: Q04DX003 (ip), vehicle: Klucel (hydroxypropylcellulose) (HPC)) was 112 % of control.

Source: PubChem BioAssay AID182 (DTP/NCI, 2004)
